# Results from ChEMBL document CHEMBL4725469, “Hydrogen Peroxide Inducible JAK3 Covalent Inhibitor: Prodrug for the Treatment of RA with Enhanced Safety Profile” (ACS Med Chem Lett, 2020).
# Activity calls are given as the source filed them. The calls are words filed in the database; no cut-off is given here.
# How the values were obtained:
# Mus musculus [1] = experiment: Antiarthritic activity in ip dosed collagen/complete freund's adjuvant-induced rheumatoid arthritis DBA/1J mouse model assessed as inhibition of feet swelling administered for 14 days by H and E staining based analysis; format: functional, organism-based; conditions: dose mg/kg 5-20, time 14.0 day
# [2] = Drug level in ankle joint of collagen/complete freund's adjuvant-induced rheumatoid arthritis DBA/1J mouse model at 20 mg/kg, ip by LC-MS/MS analysis; format: ADME, organism-based; conditions: in vivo, read-out: Ct
# [3] = target: T1, Tyrosine-protein kinase JAK3 (Mus musculus) (UniProt Q62137); experiment: Inhibition of JAK3 in mouse BaF3/TEL-JAK3 cells assessed as effect on STAT5 phosphorylation at 0.125 to 2 uM by Western blot analysis; format: cell-based; conditions: dose microM 0.125-2
# T1 sequence (whole entry): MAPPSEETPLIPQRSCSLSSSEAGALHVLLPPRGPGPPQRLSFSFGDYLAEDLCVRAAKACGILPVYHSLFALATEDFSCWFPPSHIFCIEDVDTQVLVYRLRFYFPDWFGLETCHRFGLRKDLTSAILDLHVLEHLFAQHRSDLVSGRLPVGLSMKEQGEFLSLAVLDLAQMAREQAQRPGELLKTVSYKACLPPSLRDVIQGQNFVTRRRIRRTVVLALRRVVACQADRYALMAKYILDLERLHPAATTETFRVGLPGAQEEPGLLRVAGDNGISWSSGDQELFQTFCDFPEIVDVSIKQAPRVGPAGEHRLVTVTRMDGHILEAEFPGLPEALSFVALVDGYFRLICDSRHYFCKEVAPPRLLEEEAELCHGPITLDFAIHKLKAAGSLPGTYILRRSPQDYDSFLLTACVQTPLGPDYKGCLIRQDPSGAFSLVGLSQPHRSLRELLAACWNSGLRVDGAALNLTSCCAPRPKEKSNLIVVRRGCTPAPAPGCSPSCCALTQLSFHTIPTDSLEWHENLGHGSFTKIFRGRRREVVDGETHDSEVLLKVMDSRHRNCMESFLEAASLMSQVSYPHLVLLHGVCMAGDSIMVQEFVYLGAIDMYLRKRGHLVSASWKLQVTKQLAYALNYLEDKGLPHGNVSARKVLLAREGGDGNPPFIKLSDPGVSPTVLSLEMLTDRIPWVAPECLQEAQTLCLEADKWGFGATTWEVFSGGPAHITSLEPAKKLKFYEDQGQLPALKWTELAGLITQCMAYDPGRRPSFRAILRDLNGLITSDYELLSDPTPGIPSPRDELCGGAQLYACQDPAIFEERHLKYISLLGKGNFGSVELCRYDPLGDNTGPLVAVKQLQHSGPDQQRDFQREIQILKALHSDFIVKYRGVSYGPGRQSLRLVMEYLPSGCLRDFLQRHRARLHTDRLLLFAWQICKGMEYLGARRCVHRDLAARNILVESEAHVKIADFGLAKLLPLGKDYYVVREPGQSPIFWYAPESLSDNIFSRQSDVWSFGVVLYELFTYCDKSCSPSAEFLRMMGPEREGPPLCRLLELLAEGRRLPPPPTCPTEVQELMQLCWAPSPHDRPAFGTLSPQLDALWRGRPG
# [4] = Stability in mouse plasma at 20 uM after 0.25 to 24 hrs by RP-UPLC-UV analysis; format: ADME, cell-free; conditions: time 0.25-24 hrs, read-out: Stabilty
# [5] = Cmax in Sprague-Dawley rat at 20 mg/kg, ip measured for 0.8 to 24 hrs by LC-MS/MS analysis; format: ADME, organism-based; set-up: route intraperitoneal, dose 20 mg/kg, time 0.8-24; conditions: in vivo
# Mus musculus [6] = experiment: Antiarthritic activity in DBA/1J mouse model assessed as effect on collagen/complete freund's adjuvant-induced eroded synovial cells in ankle joints at 20 mg/kg, ip administered for 14 days by H and E staining analysis; format: functional, organism-based; conditions: time 14.0 day
# [7] = Permeability of compound at pH 7.4 by PAMPA assay; format: ADME; conditions: read-out: permeability
# Mus musculus [8] = experiment: In vivo inhibition of JAK3 in collagen/complete freund's adjuvant-induced rheumatoid arthritis DBA/1J mouse model assessed as effect on STAT5 phosphorylation in lung at 20 mg/kg, ip administered for 14 days by Western blot analysis; format: functional, organism-based; conditions: time 14.0 day
# Mus musculus [9] = experiment: Antiarthritic activity in DBA/1J mouse model assessed as effect on collagen/complete freund's adjuvant-induced disordered synovial cells in ankle joints at 20 mg/kg, ip administered for 14 days by H and E staining analysis; format: functional, organism-based; conditions: time 14.0 day
# [10] = Apparent volume of distribution in Sprague-Dawley rat at 20 mg/kg, ip measured for 0.8 to 24 hrs by LC-MS/MS analysis; format: ADME, organism-based; conditions: in vivo, time 0.8-24 hrs
# [11] = Toxicity in ICR mouse assessed as increase in spleen weight at 100 mg/kg, ip administered for 14 days; format: organism-based; conditions: in vivo, 336 h, time 14 day
# Mus musculus [12] = experiment: Antiarthritic activity in ip dosed collagen/complete freund's adjuvant-induced rheumatoid arthritis DBA/1J mouse model assessed as reduction in IL-2 level in serum administered for 14 days by ELISA; format: functional, organism-based; conditions: dose mg/kg 5-20, time 14.0 day
# Mus musculus [13] = experiment: Antiarthritic activity in ip dosed collagen/complete freund's adjuvant-induced rheumatoid arthritis DBA/1J mouse model assessed as reduction in G-CSF level in serum administered for 14 days by ELISA; format: functional, organism-based; conditions: dose mg/kg 5-20, time 14.0 day
# [14] = Toxicity in ICR mouse assessed as increase in liver weight at 100 mg/kg, ip administered for 14 days; format: organism-based; conditions: in vivo, 336 h, time 14 day
# [15] = Stability in simulated gastric fluid measured after 0.25 to 24 hrs by RP-UPLC-UV analysis
# [16] = Stability in simulated intestinal fluid incubated for 0.25 to 24 hrs by RP-UPLC-UV analysis
# [17] = MRT (0 to infinity) in Sprague-Dawley rat at 20 mg/kg, ip measured for 0.8 to 24 hrs by LC-MS/MS analysis; format: ADME, organism-based; conditions: in vivo, time 0.8-24 hrs
# Mus musculus [18] = experiment: Antiarthritic activity in ip dosed collagen/complete freund's adjuvant-induced rheumatoid arthritis DBA/1J mouse model assessed as reduction in serum amyloid A level administered for 14 days by ELISA; format: functional, organism-based; conditions: dose mg/kg 5-20, time 14.0 day
# Mus musculus [19] = experiment: Antiarthritic activity in collagen/complete freund's adjuvant-induced rheumatoid arthritis DBA/1J mouse model assessed as inhibition of feet swelling at 20 mg/kg, ip administered for 14 days by H and E staining based analysis; format: functional, organism-based; conditions: time 14.0 day
# [20] = Stability in phosphate buffer saline at pH 7.4 after 0.25 to 24 hrs by RP-UPLC-UV analysis; format: physicochemical; conditions: time 0.25-24 hrs
# [21] = Toxicity in ICR mouse assessed as effect on body weight at 100 mg/kg, ip administered for 14 days; format: organism-based; conditions: in vivo, 336 h, time 14 day
# [22] = Tmax in Sprague-Dawley rat at 20 mg/kg, ip measured for 0.8 to 24 hrs by LC-MS/MS analysis; format: ADME, organism-based; conditions: in vivo, time 0.8-24 hrs
# Mus musculus [23] = experiment: In vivo inhibition of JAK3 in collagen/complete freund's adjuvant-induced rheumatoid arthritis DBA/1J mouse model assessed as effect on STAT5 phosphorylation in spleen at 20 mg/kg, ip administered for 14 days by Western blot analysis; format: functional, organism-based; conditions: time 14.0 day
# Mus musculus [24] = experiment: In vivo inhibition of JAK3 in collagen/complete freund's adjuvant-induced rheumatoid arthritis DBA/1J mouse model assessed as effect on STAT5 phosphorylation in heart at 20 mg/kg, ip administered for 14 days by Western blot analysis; format: functional, organism-based; conditions: time 14.0 day
# [25] = Prodrug activation in DMSO assessed as H2O2 mediated prodrug release after 4 hrs in presence of 0.1 uM H2O2 after 4 hrs by RP-HPLC-UV analysis
# [26] = target: T1, Tyrosine-protein kinase JAK3 (Mus musculus); experiment: Inhibition of JAK3 in mouse BaF3/TEL-JAK3 cells assessed as effect on STAT3 phosphorylation at 0.125 to 2 uM by Western blot analysis; format: cell-based; conditions: dose microM 0.125-2
# [27] = Aqueous solubility of compound at pH 7.4; format: physicochemical; conditions: buffer
# Mus musculus [28] = experiment: Antiarthritic activity in DBA/1J mouse model assessed as effect on collagen/complete freund's adjuvant-induced synovial hyperplasia at 20 mg/kg, ip administered for 14 days by H and E staining analysis; format: functional, organism-based; conditions: time 14.0 day
# [29] = Half life in Sprague-Dawley rat at 20 mg/kg, ip measured for 0.8 to 24 hrs by LC-MS/MS analysis; format: ADME, organism-based; conditions: in vivo, time 0.8-24 hrs
# [30] = AUC in Sprague-Dawley rat at 20 mg/kg, ip measured for 0.8 to 24 hrs by LC-MS/MS analysis; format: ADME, organism-based; set-up: route intraperitoneal, dose 20 mg/kg, time 0.8-24; conditions: in vivo
# [31] = Dissociation constant, pKa of the compound; format: physicochemical
# Mus musculus [32] = experiment: In vivo inhibition of JAK3 in collagen/complete freund's adjuvant-induced rheumatoid arthritis DBA/1J mouse model assessed as effect on STAT5 phosphorylation in liver at 20 mg/kg, ip administered for 14 days by Western blot analysis; format: functional, organism-based; conditions: time 14.0 day
# [33] = Apparent clearance in Sprague-Dawley rat at 20 mg/kg, ip measured for 0.8 to 24 hrs by LC-MS/MS analysis; format: ADME, organism-based; conditions: in vivo, time 0.8-24 hrs
# Mus musculus [34] = experiment: In vivo inhibition of JAK3 in collagen/complete freund's adjuvant-induced rheumatoid arthritis DBA/1J mouse model assessed as effect on STAT5 phosphorylation in kidney at 20 mg/kg, ip administered for 14 days by Western blot analysis; format: functional, organism-based; conditions: time 14.0 day
# [35] = Prodrug activation in collagen/complete freund's adjuvant-induced rheumatoid arthritis DBA/1J mouse model assessed as Z)-2-((5-(1-cyclohexyl-1,6-dihydroimidazo[4,5-d]pyrrolo[2,3-b]pyridin-2-yl)furan-2-yl)(hydroxy)methyl)-3-(dimethylamino)-3-((4-(4,4,5,5-tetramethyl-1,3,2-dioxaborolan-2-yl)benzyl)oxy)acrylonitrile level in ankle joint at […], ip by LC-MS/MS analysis; format: organism-based; conditions: in vivo, 20 mg/kg, read-out: Ct
# [36] = Stability in human plasma at 20 uM after 0.25 to 24 hrs by RP-UPLC-UV analysis; format: ADME, cell-free; conditions: time 0.25-24 hrs, read-out: Stabilty
# Mus musculus [37] = experiment: Antiarthritic activity in collagen/complete freund's adjuvant-induced rheumatoid arthritis DBA/1J mouse model assessed as inhibition of feet swelling at 10 mg/kg, ip administered for 14 days by H and E staining based analysis; format: functional, organism-based; conditions: time 14.0 day
# [38] = Toxicity in ICR mouse assessed as inflammatory inflammation in lungs at 100 mg/kg, ip administered for 14 days; format: organism-based; conditions: in vivo, 336 h, time 14 day
# [39] = Toxicity in ICR mouse assessed as inflammatory inflammation in heart at 100 mg/kg, ip administered for 14 days; format: organism-based; conditions: in vivo, 336 h, time 14 day
concentration [2] [nM],inhibition [3],Cmax [5] [ng/mL],Papp [7] [×10⁻⁶ cm/s],Vz [10] [L/kg],MRT inf [17] [h],Tmax [22] [h],inhibition [26],solubility [27] [mg/kg],t1/2 [29] [h],AUC [30] [µg·h/mL],pKa [31],CL(app) [33] [mL/min/kg],SMILES,Activity [11],Activity [14],Activity [21],further results
290,Active,983.33,56.4,8.7,2.38,0.25,Active,0.011,2.92,963.5,10.7,35,CN(C)/C(OCc1ccc(B2OC(C)(C)C(C)(C)O2)cc1)=C(\C#N)C(O)c1ccc(-c2nc3cnc4[nH]ccc4c3n2C2CCCCC2)o1 (stereo not given),Non-Toxic,Non-Toxic,Non-Toxic,inhibition (Mus musculus [1]): Dose-dependent effect; remaining at 20 µM [4]: > 95%; Activity (Mus musculus [6]): Active; inhibition (Mus musculus [8]): inactive; Activity (Mus musculus [9]): Active; Activity (Mus musculus [12]): Active; Activity (Mus musculus [13]): Active; Stability [15]: > 95%; Stability [16]: > 95%; Activity (Mus musculus [18]): Active; inhibition (Mus musculus [19]): Active; Stabilty [20]: > 95%; inhibition (Mus musculus [23]): inactive; inhibition (Mus musculus [24]): inactive; Drug metabolism [25]: Not Active; Activity (Mus musculus [28]): Active; inhibition (Mus musculus [32]): inactive; inhibition (Mus musculus [34]): inactive; concentration [35]: 1130 nM; remaining at 20 µM [36]: > 95%
1070,Active,455.37,14.7,27.96,3.84,0.17,Active,0.719,2.36,331.91,10.1,100,CN(C)C(=O)/C(C#N)=C/c1ccc(-c2nc3cnc4[nH]ccc4c3n2C2CCCCC2)o1,Toxic,Toxic,Toxic,inhibition (Mus musculus [37]): Active; Activity [38]: Toxic; Activity [39]: Toxic
